Test system: cortical markers TBR1, MEF2C, BRN2, NEUROD2
Test: qPCR of cortical markers in miNs versus starting fibroblasts
Type: cell-based, human
Conditions: combination of MYT1L and ISX9 with miR-9/9*-124, day 30 miNs, ISX9 10 uM on PID 3, 6, 10, 14
Description: Direct Neuronal Reprogramming: Human fibroblasts were directly reprogrammed to miNs as previously described with modifications. Briefly, fibroblasts were transduced with supernatant lentivirus mix comprised of dox-inducible miR-9/9*-124, rtTA, and the transcription factor MYT1L. From PID1 to PID14 cells were treated with DAPT (2 uM) to increase neurite outgrowth and neuronal differentiation, and on PID 3, 6, 10, and 14, cells were also treated with the NEUROD1-activator ISX9 (10 uM) to push cortical fate. Fibroblasts and reprogramming cells were cultured in DMEM+10% FBS through replating at PID5. On PID6, cells were switched to Neurobasal-A with B27+(1000×) and Glutamax (500×), containing 1 μg/mL doxycycline, 200 μM dibutyl cyclic AMP, 1 mM valproic acid, 2 uM DAPT, 200 nM Ascorbic Acid, 10 ng/mL BDNF, 10 ng/mL NT-3, 1 μM retinoic acid, 10 uM ISX9, 100×RVC, and 3 μg/mL puromycin. […]
Quantitative PCR (qPCR): Total RNA was extracted from miNs using TRIzol (Invitrogen, USA) following manufacturer protocol. Reverse-transcription was performed with 150-200 ng of RNA with SuperScript IV First Strand Synthesis SuperMix (Invitrogen, USA). qPCR assay was run with SYBR Green PCR Master Mix and plate was run and analyzed on StepOnePlus Real-Time PCR System (AB Applied Biosystems, Germany). […] Expression values were calculated in Excel using the delta Ct method and Z-score calculation.

Structure (SMILES): O=C(NC1CC1)c1cc(-c2cccs2)on1 [ISX9, Isoxazole 9]
- Cortical fate (cortical marker expression by qPCR): sufficient to drive the cortical fate
